{
  "source": "patent US20240277712A1",
  "about": "“TREATMENT AND PREVENTION OF DEVELOPMENTAL DISORDERS AND MENTAL DISEASES” (KYUSHU UNIVERSITY, NATIONAL UNIVERSITY CORPORATION, priority 2020, published 2024)",
  "key": {"[1]": {"molecular_target": "L1 reverse transcriptase (Homo sapiens, UniProt O00370)", "sequence (O00370 whole entry, looked up)": "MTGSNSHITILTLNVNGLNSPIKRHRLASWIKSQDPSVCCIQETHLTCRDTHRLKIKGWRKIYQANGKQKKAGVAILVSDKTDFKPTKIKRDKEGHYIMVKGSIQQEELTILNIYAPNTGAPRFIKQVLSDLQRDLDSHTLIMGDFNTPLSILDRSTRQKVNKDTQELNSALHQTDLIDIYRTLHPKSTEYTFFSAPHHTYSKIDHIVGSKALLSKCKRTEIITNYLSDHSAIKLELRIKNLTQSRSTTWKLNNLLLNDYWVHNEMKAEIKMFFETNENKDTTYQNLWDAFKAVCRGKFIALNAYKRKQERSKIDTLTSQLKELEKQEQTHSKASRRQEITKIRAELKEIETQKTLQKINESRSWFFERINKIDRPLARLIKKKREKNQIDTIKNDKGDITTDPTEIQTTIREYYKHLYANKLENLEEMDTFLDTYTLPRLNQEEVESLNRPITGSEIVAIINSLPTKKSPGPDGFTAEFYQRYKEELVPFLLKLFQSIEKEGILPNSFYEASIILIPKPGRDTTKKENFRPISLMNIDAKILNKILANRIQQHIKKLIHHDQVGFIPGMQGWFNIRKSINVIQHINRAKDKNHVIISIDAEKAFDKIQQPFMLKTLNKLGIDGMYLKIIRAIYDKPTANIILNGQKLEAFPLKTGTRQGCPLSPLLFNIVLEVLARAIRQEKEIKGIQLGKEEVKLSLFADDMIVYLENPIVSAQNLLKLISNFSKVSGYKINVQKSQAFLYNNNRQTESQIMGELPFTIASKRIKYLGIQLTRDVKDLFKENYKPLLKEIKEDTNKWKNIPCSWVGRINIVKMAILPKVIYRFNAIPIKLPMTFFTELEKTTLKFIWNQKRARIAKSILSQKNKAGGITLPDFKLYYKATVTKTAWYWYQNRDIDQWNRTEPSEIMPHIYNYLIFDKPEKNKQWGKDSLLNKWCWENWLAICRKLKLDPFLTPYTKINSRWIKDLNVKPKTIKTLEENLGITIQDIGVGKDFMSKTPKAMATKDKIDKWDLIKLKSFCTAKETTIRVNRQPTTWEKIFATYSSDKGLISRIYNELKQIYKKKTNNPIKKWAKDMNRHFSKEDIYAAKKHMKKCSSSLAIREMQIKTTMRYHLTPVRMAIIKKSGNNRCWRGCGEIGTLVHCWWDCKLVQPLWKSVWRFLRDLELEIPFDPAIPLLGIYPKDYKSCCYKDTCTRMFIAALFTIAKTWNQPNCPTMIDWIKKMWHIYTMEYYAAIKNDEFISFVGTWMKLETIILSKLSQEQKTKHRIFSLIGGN", "conditions": "Dai et al., BMC Biochemistry 2011, 12:18; cited from earlier work"}, "[2]": {"system": "MECP2-deficient spheroids", "assay": "Multi-electrode array (MEA) neural network activity of spheroids", "assay_type": "cell-based, human", "conditions": "MEA after 4 weeks, chronic treatment", "protocol": "Next, 3TC and d4T were added to the obtained differentiated neural cell culture. The reverse-transcriptase inhibitors for cultured cells were prepared for as follows: Lamivudine (3TC, Sigma-Aldrich) was prepared in dimethyl sulfoxide (DMSO, Sigma Aldrich) and the preparation was added to media so that the final concentration of 3TC was adjusted into 10 μM. Stavudine (d4T, Sigma-Aldrich) was suspended in water and a final concentration of 1 μM d4T was used in combination with 3TC. […] Control cells (CTRL) contained 10 pjM DMSO as a vehicle control.\nThe NPCs used to generate spheroids were chronically treated under their respective conditions and plated on multi-electrode array (MEA) planes to measure neural network activity. MEA plates were recorded weekly and analysis of spontaneous neural activity was performed after 4 weeks.\nMulti-electrode array (MEA) was performed as follows.\nTwelve-well MEA plates (Axion Biosystems) were coated with 100 μg/mL poly-L-ornithine (Sigma-Aldrich) and 5 μg/mL laminin (Life Technologies). Neurospheres generated from NPCs were placed in the center of the MEA wells and the electrodes were fully covered. Neurospheres were plated in NG media supplemented with 1% FBS. […] Media was changed twice a week and recordings were measured one day after the media was changed. […]"}, "[3]": {"system": "MECP2-deficient organoids", "assay": "Measurement of cortical organoid diameter", "assay_type": "cell-based, human", "conditions": "after 56 days of differentiation", "protocol": "The cultured iPS cells were dissociated from the plate using a 1:1 Dulbecco's phosphate-buffered saline (DPBS, Fisher Scientific) and StemPro Accutase solution, transferred to 6-well plates, and kept in suspension. Neural induction media consisted of DMEM/F12, 1% Glutamax, 1% N2 Neuroplex, 1% non-essential amino acids (Gibco), 1% penicillin-streptomycin, 1 μM Dorsomorphin (R&D Systems), and 10 μM SB431542 (SB, Stemgent) Neural proliferation media consisted of Neurobasal media (Life Technologies), 2% Gem21 Neuroplex, 1% non-essential amino acids, 1% Glutamax, 20 ng/mL epidermal growth factor (EGF, Peprotech), and 20 ng/mL bFGF. For neuronal maturation, the cells were kept in the same media but the growth factors were withdrawn. Organoid results are combined from four separate batches of differentiation.\n(§2) Next, 3TC and d4T were added to the obtained differentiated neural cell culture. The reverse-transcriptase inhibitors for cultured cells were prepared for as follows: Lamivudine (3TC, Sigma-Aldrich) was prepared in dimethyl sulfoxide (DMSO, Sigma Aldrich) and the preparation was added to media so that the final concentration of 3TC was adjusted into 10 μM. […]\nCortical organoids were imaged on an Evos FL Imagine System (ThermoFisher) at 4× magnification. The images were uploaded to Image J and the diameter of each organoid was determined by the program's length measurement function."}, "[4]": {"system": "MECP2-deficient neurons", "assay": "Morphological analysis of iPS cell-derived neurons (Neurolucida tracing, Scholl analysis)", "assay_type": "cell-based, human", "conditions": "3TC 10 μM in combination with d4T 1 μM, NVP 400 nM", "protocol": "Specifically, differentiated nervous system cells derived from normal human iPS cells and iPS cells obtained from patients suffered from Rett syndrome (hereinafter referred to as MECP2-deficient or MECP2-KO because the MECP2 gene was inactivated) were cultured and differentiated into cortical neurons. […] For neuronal maturation, the cells were kept in the same media but the growth factors were withdrawn.\nThe differentiated nervous system cells were maintained for 8 weeks after FGF withdraw.\nas §2\nCultured NPCs were transduced with a lentivirus backbone containing Synapsin 1 (SYN) promoter upstream of an EGFP reporter (Nageshappa et al., Mol Psychiatry 21, 178-188 (2016)). […] 11 (MBF Bioscience, Williston, VT) was used to quantify the morphology of the neurons and then to obtain the sum of length of all neurites and dendrites per traced neuron. […] Neuronal complexity was determined by recording the number of intersections within each ring."}, "[5]": {"system": "MECP2-deficient neurons", "assay": "Quantification of co-localized synaptic puncta (SYN1/PSD-95) on iPS cell-derived neurons", "assay_type": "cell-based, human", "conditions": "vs neurons treated without reverse transcriptase inhibitors, NVP 400 nM", "protocol": "Specifically, differentiated nervous system cells derived from normal human iPS cells and iPS cells obtained from patients suffered from Rett syndrome (hereinafter referred to as MECP2-deficient or MECP2-KO because the MECP2 gene was inactivated) were cultured and differentiated into cortical neurons. For differentiation into neurospheres (neural stem cell clusters), NPCs were dissociated from the plate using StemPro Accutase (Life Technologies), and 3-5 million cells were then cultured in suspension on 6-well plates in a shaker incubator at 95 r.p.m. at 37° C. for 48 hours in neural culture (NG) media (DMEM/F12, 1% Glutamax (Life Technologies), 1% N2 Neuroplex (Gemini Bio-products), 2% Gem21 NeuroPlex (Gemini Bio-products), 1% penicillin-streptomycin) supplemented with bFGF (basic Fibroblast Growth Factor, R&D Systems). […]\nQuantification of synaptic spots was performed as follows.\nFive- to six-week-old neurons were fixed and stained for the following markers: SYN1, postsynaptic density protein 95 (PSD-95), and dendritic marker (MAP2). A fluorescence microscope (Z1 Axio Observer Apotome Zeiss) was used to image the slides by compiling Z stack images taken from changing focus distances. Co-localized SYN1 (presynaptic) and PSD-95 (postsynaptic) were quantified using the compiled Z stack image. […]"}, "[6]": {"molecular_target": "HIV reverse transcriptase (Human immunodeficiency virus type 1 group M subtype B, UniProt P04585)", "conditions": "cited from earlier work"}, "[7]": {"system": "L1", "assay": "L1-EGFP vector assay in HEK293", "assay_type": "cell-based, human", "conditions": "HEK293 with L1-EGFP vector, 20 μM, four days", "experimental": "The reverse transcriptase inhibitors 3TC, d4T and Tenofovir disoproxil Fumarate (TDF), QA-2704, Combi-Blocks) were added to cell lines derived from human fetal kidney cells (HEK293) to a final concentration of 20 μM, and the cells were introduced with a vector (L1-EGFP, Macia et al. Genome Res 27, 335-348 (2017)) in which EGFP protein was expressed in only cells with activated L1. Four days after incubating, immunostaining was performed using antibodies against GFP and Hoechest, which stains nuclei, and images were taken using a fluorescence microscope (Leica AF600) with a 10× objective."}, "[8]": {"system": "MeCP2-KO mice", "assay": "Neurological symptom scoring in MeCP2-KO mice", "assay_type": "in vivo", "conditions": "2 mg/ml in drinking water starting at week 4, observed up to 10 weeks, vs vehicle", "experimental": "Treatment with reverse transcription inhibitors was performed as follows.\n(§1) MeCP2-KO mice (C57BL/6 background) were obtained from Mutant Mouse Resource & Research Centers (MMRRC) (Chen, RZ, Akbarian S, Tudor M and Jaenisch R. Nat Genet 27, 327-331 (2001)). All aspects of animal care and treatment were carried out according to the guidelines of the Experimental Animal Care Committee of Kyushu University.\nMice were maintained in a 12-hour light/dark cycle with free access to food and water. MeCP2-KO mice were divided into three groups of animals, each of which was administered with 3TC (QA-4615, Combi-blocks), d4T (d3580, Tokyo Chemical Industry Co., Ltd.) and vehicle. […]\nNeurological symptoms of the mice were scored as described in Guy J, Gan J, Selfridge J, Cobb S and Bird A. Science 315, 1143-1147 (2007). In brief, the mice bred as described above were scored blind to genotype and treatment status, focusing on the six symptoms of mobility, gait, hindlimb clasping, tremor, breathing, and general condition. Each of the six symptoms was scored from 0 to 2:0 corresponds to symptom's being absent or the same as in the wild-type, 1 corresponds to symptom's being present, and 2 corresponds to severe symptom.\nSix neurological symptoms scored in each of the three groups of the mice (vehicle, 15 mice; 3TC, 10 mice; d4T, 10 mice) were summed, and observed and recorded for up to 10 weeks."}, "[9]": {"system": "MeCP2-KO mice", "assay": "Survival of MeCP2-KO mice", "assay_type": "in vivo", "conditions": "2 mg/ml in drinking water starting at week 4, vs vehicle", "experimental": "as §1\nMice were maintained in a 12-hour light/dark cycle with free access to food and water. MeCP2-KO mice were divided into three groups of animals, each of which was administered with 3TC (QA-4615, Combi-blocks), d4T (d3580, Tokyo Chemical Industry Co., Ltd.) and vehicle. The mice were orally administered with 3TC (2 mg/ml), d4T (2 mg/ml) and vehicle in drinking water, respectively, starting at week 4. As a control, the vehicle-treated MeCP2-KO mice were used. All mice were observed daily.\nNext, the survival rate of the mice in each group (vehicle, 20 mice; 3TC, 13 mice; d4T, 13 mice) was examined."}},
  "note": "Entries after “also recorded” stand apart in the source; their conditions may differ. Where a name gives a salt, the structure may show the parent alone.",
  "data": [
    {"smiles": "O=C1Nc2ccc(Cl)cc2[C@@](C#CC2CC2)(C(F)(F)F)O1", "note": "[efavirenz, Efavirenz]", "values": [
      {"measurement": "inhibitory activity for L1 reverse transcriptase", "setting": "[1]", "value": "have an inhibitory activity"}
    ]},
    {"smiles": "Cc1ccnc2c1NC(=O)c1cccnc1N2C1CC1", "note": "[NVP, Nevirapine]", "values": [
      {"measurement": "weighted mean firing rate", "setting": "[2]", "value": "significantly decreased"},
      {"measurement": "cortical organoid diameter", "setting": "[3]", "value": "not seen"},
      {"measurement": "inhibitory activity for L1 reverse transcriptase", "setting": "[1]", "value": "does not have any inhibitory activity; also recorded: not to have any L1 reverse transcriptase inhibitory activity"},
      {"measurement": "cell body area", "setting": "[4]", "value": "this rescue was not seen"},
      {"measurement": "number of branch points", "setting": "[4]", "value": "this rescue was not seen"},
      {"measurement": "co-localized puncta (synapse formation)", "setting": "[5]", "value": "not seen"},
      {"measurement": "inhibitory activity for HIV reverse transcriptase", "setting": "[6]", "value": "has an HIV reverse transcriptase inhibitory activity"}
    ]},
    {"smiles": "Cc1cn([C@H]2C=C[C@@H](CO)O2)c(=O)[nH]c1=O", "note": "[d4T, stavudine]", "values": [
      {"measurement": "percentage of EGFP-positive cells", "setting": "[7]", "value": "decrease"},
      {"measurement": "Rett symptoms (summed score of six neurological symptoms)", "setting": "[8]", "value": "Significant reductions"},
      {"measurement": "survival rate", "setting": "[9]", "value": "Significant life extensions"}
    ]},
    {"smiles": "CC(C)Nc1cccnc1N1CCN(C(=O)c2cc3cc(NS(C)(=O)=O)ccc3[nH]2)CC1", "note": "[delavirdine]", "values": [
      {"measurement": "inhibitory activity for L1 reverse transcriptase", "setting": "[1]", "value": "have an inhibitory activity"}
    ]},
    {"smiles": "CC(C)OC(=O)OCOP(=O)(CO[C@H](C)Cn1cnc2c(N)ncnc21)OCOC(=O)OC(C)C", "note": "[TDF, Tenofovir disoproxil Fumarate]", "values": [
      {"measurement": "percentage of EGFP-positive cells", "setting": "[7]", "value": "decrease"}
    ]}
  ]
}
